Test results from US8362051B2, “Mold-resistant wallboard” (Rohm and Haas Company, priority 2007, dated 2013).

Experiments:
Assay type in all cases: cell-based
[1] = test system: mold; experiment: TAPPI T-487 test on surface-treated paper; set-up: key to TAPPI T-487 rating Week 1 / TAPPI T-487 rating Week 2 / TAPPI T-487 rating Week 3: 100% mold coverage; 1: 90% mold coverage; 2: 80% mold coverage; 3: 70% mold coverage; 4: 60% mold coverage; 50% mold coverage; 6: 40% mold coverage; 7: 30% mold coverage; 8: 20% mold coverage; 9: 10% mold coverage; 10: no mold growth; settings: surface treatment; for TAPPI T-487 rating Week 1 / TAPPI T-487 rating Week 2 / TAPPI T-487 rating Week 3: average of three sheets
Experimental: The papers of this example were prepared via surface treatment. The values in Table 3 below represent the average concentration of active biocide in the paper and the average […]-487 test rating based on three paper sheets.

[2] = test system: mold; experiment: TAPPI T-487 fungal efficacy test on paper sheets, biocide added to pulp slurry; set-up: key: coverage; 8: 20% mold coverage; 9: 10% mold coverage; 10: no mold growth; settings: average of three sheets
Experimental: (§1) The biocides can be evaluated in the following examples by adding to a 0.4 wt % pulp slurry in water (100% recycle) typically used for gypsum wallboard facing paper. The slurry is filtered through a screen to drain the water from the stock and the resulting paper mat is blotted, couched, and dried to form a paper sheet with a basis weight of approximately 40 lb/1000 ft2. Three sheets per condition are prepared. High Performance Liquid Chromatography (HPLC) is used to determine the amount of biocide present in each sheet. The paper sheets are evaluated for fungal growth via ASTM 3273, currently the industry standard for mold-resistant wallboard, as well as the standard TAPPI T-487 fungal efficacy test.
(§2) The values in Tables 1 and 2 below represent data from samples made substantially according to the preceding protocol. The average concentration of active biocide in the paper and the average test rating based on three paper sheets are shown. Based on tables 1 and 2, approximately 4-4.5 times more DIMTS active was needed in the paper sheet than OIT before no mold growth was observed throughout the entire testing period.
(§3) For ASTM 3273, a 4-week test, the following rating scale applies: • 0—100% mold coverage • 1—90% mold coverage • 2—80% mold coverage • 3—70% mold coverage • 4—60% mold coverage • 5—50% mold coverage • 6—40% mold coverage • 7—30% mold coverage • 8—20% mold coverage • 9—10% mold coverage • 10—no mold growth For TAPPI T-487, a 3-week test, the following rating scale applies: • 0—no mold growth • 1—25% mold coverage • 2—50% mold coverage • 3—75% mold coverage • 4—100% mold coverage

[3] = test system: mold; experiment: ASTM 3273 fungal growth test on paper sheets, biocide added to pulp slurry; set-up: key to ASTM 3273 rating Week 1: 0: 100% mold coverage; 1: 90%; 2: 80%; 3: 70%; 4: 60%; 5: 50%; 6: 40%; 7: 30%; 8: 20%; 9: 10%; 10: no mold growth coverage; 8: 20% mold coverage; 9: 10% mold coverage; 10: no mold growth; key to ASTM 3273 rating Week 2 / ASTM 3273 rating Week 3 / ASTM 3273 rating Week 4: 100% mold coverage; 1: 90% mold coverage; 2: 80% mold coverage; 3: 70% mold coverage; 4: 60% mold coverage; 50% mold coverage; 6: 40% mold coverage; 7: 30% mold coverage; 8: 20% mold coverage; 9: 10% mold coverage; 10: no mold growth; settings: average of three sheets
Experimental: as §1, §2, §3

CCCCNC(=O)OCC#CI [IPBC, 3-iodo-2-propynyl-butylcarbamate]
TAPPI T-487 rating Week 1 ([1]; 70 ppm in paper): 0
TAPPI T-487 rating Week 2 ([1]; 70 ppm in paper): 0
TAPPI T-487 rating Week 3 ([1]; 70 ppm in paper): 0
TAPPI T-487 rating Week 1 ([1]; 688 ppm in paper): 0
TAPPI T-487 rating Week 2 ([1]; 688 ppm in paper): 0
TAPPI T-487 rating Week 3 ([1]; 688 ppm in paper): 0
TAPPI T-487 rating Week 1 ([1]; 6768 ppm in paper): 0
TAPPI T-487 rating Week 2 ([1]; 6768 ppm in paper): 0
TAPPI T-487 rating Week 3 ([1]; 6768 ppm in paper): 0
effectiveness at controlling mold growth versus comparators ([1]; based on Table 3): more effective at controlling mold growth at lower dosages than DIMTS, ZPT, and TBZ

zinc pyrithione [ZPT]
TAPPI T-487 rating Week 1 ([1]; 60 ppm in paper): 4 (100% mold coverage)
TAPPI T-487 rating Week 2 ([1]; 60 ppm in paper): 4 (100% mold coverage)
TAPPI T-487 rating Week 3 ([1]; 60 ppm in paper): 4 (100% mold coverage)
TAPPI T-487 rating Week 1 ([1]; 486 ppm in paper): 1 (25% mold coverage)
TAPPI T-487 rating Week 2 ([1]; 486 ppm in paper): 4 (100% mold coverage)
TAPPI T-487 rating Week 3 ([1]; 486 ppm in paper): 4 (100% mold coverage)
TAPPI T-487 rating Week 1 ([1]; 5408 ppm in paper): 0
TAPPI T-487 rating Week 2 ([1]; 5408 ppm in paper): 0
TAPPI T-487 rating Week 3 ([1]; 5408 ppm in paper): 0

CCCCCCCCn1sccc1=O [OIT, octylisothiazolinone]
TAPPI T-487 rating Week 1 ([2]; 181 ppm in paper sheet): 0
TAPPI T-487 rating Week 2 ([2]; 181 ppm in paper sheet): 0
TAPPI T-487 rating Week 3 ([2]; 181 ppm in paper sheet): 0
TAPPI T-487 rating Week 1 ([2]; 309 ppm in paper sheet): 0
TAPPI T-487 rating Week 2 ([2]; 309 ppm in paper sheet): 0
TAPPI T-487 rating Week 3 ([2]; 309 ppm in paper sheet): 0
TAPPI T-487 rating Week 1 ([2]; 492 ppm in paper sheet): 0
TAPPI T-487 rating Week 2 ([2]; 492 ppm in paper sheet): 0
TAPPI T-487 rating Week 3 ([2]; 492 ppm in paper sheet): 0
ASTM 3273 rating Week 1 ([3]; 113 ppm in paper sheet): 10
ASTM 3273 rating Week 2 ([3]; 113 ppm in paper sheet): 10
ASTM 3273 rating Week 3 ([3]; 113 ppm in paper sheet): 10
ASTM 3273 rating Week 4 ([3]; 113 ppm in paper sheet): 10
ASTM 3273 rating Week 1 ([3]; 174 ppm in paper sheet): 10
ASTM 3273 rating Week 2 ([3]; 174 ppm in paper sheet): 10
ASTM 3273 rating Week 3 ([3]; 174 ppm in paper sheet): 10
ASTM 3273 rating Week 4 ([3]; 174 ppm in paper sheet): 10
ASTM 3273 rating Week 1 ([3]; 283 ppm in paper sheet): 10
ASTM 3273 rating Week 2 ([3]; 283 ppm in paper sheet): 10
ASTM 3273 rating Week 3 ([3]; 283 ppm in paper sheet): 10
ASTM 3273 rating Week 4 ([3]; 283 ppm in paper sheet): 10

c1ccc2[nH]c(-c3cscn3)nc2c1 [TBZ, Thiabendazole]
TAPPI T-487 rating Week 1 ([1]; 31 ppm in paper): 4 (100% mold coverage)
TAPPI T-487 rating Week 2 ([1]; 31 ppm in paper): 4 (100% mold coverage)
TAPPI T-487 rating Week 3 ([1]; 31 ppm in paper): 4 (100% mold coverage)
TAPPI T-487 rating Week 1 ([1]; 229 ppm in paper): 2 (50% mold coverage)
TAPPI T-487 rating Week 2 ([1]; 229 ppm in paper): 4 (100% mold coverage)
TAPPI T-487 rating Week 3 ([1]; 229 ppm in paper): 4 (100% mold coverage)
TAPPI T-487 rating Week 1 ([1]; 4107 ppm in paper): 0
TAPPI T-487 rating Week 2 ([1]; 4107 ppm in paper): 0
TAPPI T-487 rating Week 3 ([1]; 4107 ppm in paper): 0
